PubChem BioAssay (NCI)
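How tested: cells in 96-well plates exposed to compound for 48 hours at five concentrations. TGI is the concentration that stops growth completely.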

Legend:
Test in all cases: NCI tumour cell line growth inhibition, 48 h
[1] = system: DMS 273 small cell lung
[2] = system: RXF-631 renal
[3] = system: LXFL 529 NSCLC
[4] = system: DLD-1 colon
[5] = system: P388/ADR leukemia
[6] = system: P388 leukemia
[7] = system: SN12K1 renal

SMILES | TGI [1] | TGI [2] | TGI [3] | TGI [4] | TGI [5] | TGI [6] | TGI [7]
Cc1ccc(S(=O)(=O)N/N=C(\c2nc3ccc(Cl)cc3[nH]c2=O)C(O)c2cccc([N+](=O)[O-])c2)cc1 (configuration not stated) | > 100 µM | > 100 µM | > 100 µM | > 100 µM | – | – | –
Cc1c(Cl)c2ccccc2n1S(=O)(=O)c1ccccc1 | > 100 µM | – | > 100 µM | > 100 µM | – | – | –
CCOC(=O)C1(C/C=C(/C)Cl)CCCC1=O (configuration not stated) | > 100 µM | > 100 µM | > 100 µM | > 100 µM | – | – | –
COC(=O)/C=C1/CCC(C(=O)OC)N1 (configuration not stated) | > 100 µM | – | > 100 µM | > 100 µM | – | – | –
COc1ccc(-c2cc(=O)c3cc4c(cc3[nH]2)OCO4)cc1OC | > 100 µM | – | > 100 µM | > 100 µM | – | – | –
CC(C)(C)N=NNc1cn(C2OC(CO)C(O)C2O)c(=O)[nH]c1=O (configuration not stated) | > 100 µM | – | > 100 µM | > 100 µM | – | – | –
N#CC1=C(N)n2c(s/c(=C\c3ccc(Cl)cc3)c2=O)=C(c2nc3ccccc3[nH]2)C1c1ccc(Cl)cc1 (configuration not stated) | 6.23 µM | – | 4.58 µM | 15.4 µM | – | – | –
COc1cc2c(c(OC)c1OC)-c1ccc(SC)c(=O)cc1[C@@H](NCc1ccc(C#N)cc1)CC2 | – | – | > 100 µM | – | – | – | –
O=S(=O)(CCBr)CCBr | 15.1 µM | – | – | 8.66 µM | 12.1 µM | 5.67 µM | 19.7 µM
NC(CCCC(N)P(=O)(O)c1ccccc1)P(=O)(O)c1ccccc1 (configuration not stated) | > 261 µM | – | > 261 µM | > 261 µM | – | – | –
CCc1cc(Cc2cc(Cl)c(NC(=O)C(=O)C3NC(=O)NC3=O)c(CC)c2)cc(Cl)c1NC(=O)C(=O)C1NC(=O)NC1=O (configuration not stated) | 41.3 µM | – | > 100 µM | – | – | – | –
Clc1ccc(SC(/C=C/NNC2=NC(c3ccccc3)C(c3ccccc3)=NN2)c2ccccc2)cc1 (configuration not stated) | > 100 µM | > 100 µM | – | > 100 µM | – | – | –
O=C(c1ccc(Cl)cc1)c1ccc(OCCCOc2ccc(C(=O)c3ccc(Cl)cc3)cc2)cc1 | > 100 µM | – | > 100 µM | > 100 µM | – | – | –
O=c1[nH]c(=O)n(C2OC(COP(=O)(O)OP(=O)(O)OC3OC(CO)C(O)C(O)C3O)C(O)C2O)cc1F (configuration not stated) | – | > 100 µM | > 100 µM | > 100 µM | – | – | –
Cc1nc(Nc2ccc(Cl)cc2)sc1C(=O)NNc1ccc([N+](=O)[O-])cc1[N+](=O)[O-] | 39.3 µM | – | 30.9 µM | 28 µM | – | – | –
CCCN(CCCC(NC(C)=O)C(=O)NCc1ccccc1)C(=O)N(CCCl)N=O (configuration not stated) | 24.6 µM | > 77.6 µM | 34 µM | 43.1 µM | – | – | –
CN(C)c1ccc(C(=C(c2ccc(N(C)C)cc2)c2ccc(N(C)C)cc2)c2ccc(N(C)C)cc2)cc1 | 38.9 µM | 40.6 µM | 25.6 µM | 41.5 µM | – | – | –
O=C1Nc2ccccc2C12CCNC2Cc1ccccc1 (configuration not stated) | > 100 µM | – | > 100 µM | > 100 µM | – | – | –
